Source: patent US10150764B2, “Substituted benzene compounds” (Epizyme, Inc., priority 2013, dated 2018)
Where a name gives a salt, the structure may show the parent alone.

What was measured:
[1] = tested on: H3K27me3 in WSU-DLCL2 cells; assay: WSU-DLCL2 methylation assay (H3K27me3 ELISA); assay type: cell-based, human; details: Homo sapiens, WSUDLCL2, 96 hours incubation, H3K27me3 normalised to total H3
Text: WSU-DLCL2 Methylation Assay
WSU-DLCL2 suspension cells were purchased from DSMZ (German Collection of Microorganisms and Cell Cultures, Braunschweig, Germany). RPMI/Glutamax Medium, Penicillin-Streptomycin, Heat Inactivated Fetal Bovine Serum, and D-PBS were purchased from Life Technologies, Grand Island, N.Y., USA. Extraction Buffer and Neutralization Buffer (5×) were purchased from Active Motif, Carlsbad, Calif., USA. Rabbit anti-Histone H3 antibody was purchased from Abcam, Cambridge, Mass., USA. Rabbit anti-H3K27me3 and HRP-conjugated anti-rabbit-IgG were purchased from Cell Signaling Technology, Danvers, Mass., USA. TMB “Super Sensitive” substrate was sourced from BioFX Laboratories, Owings Mills, Md., USA. IgG-free Bovine Serum Albumin was purchased from Jackson ImmunoResearch, West Grove, Pa., USA. PBS with Tween (10×PBST) was purchased from KPL, Gaithersburg, Md., USA. Sulfuric Acid was purchased from Ricca Chemical, Arlington, Tex., USA. Immulon ELISA plates were purchased from Thermo, Rochester, N.Y., USA. V-bottom cell culture plates were purchased from Corning Inc., Corning, N.Y., USA. V-bottom polypropylene plates were purchased from Greiner Bio-One, Monroe, N.C., USA.
WSU-DLCL2 suspension cells were maintained in growth medium (RPMI 1640 supplemented with 10% v/v heat inactivated fetal bovine serum and 100 units/mL penicillin-streptomycin) and cultured at 37° C. under 5% CO2. Under assay conditions, cells were incubated in Assay Medium (RPMI 1640 supplemented with 20% v/v heat inactivated fetal bovine serum and 100 units/mL penicillin-streptomycin) at 37° C. under 5% CO2 on a plate shaker.
WSU-DLCL2 cells were seeded in assay medium at a concentration of 50,000 cells per mL to a 96-well V-bottom cell culture plate with 200 μL per well. […] Plates were incubated on a titer-plate shaker at 37° C., 5% CO2 for 96 hours. After four days of incubation, plates were spun at 241×g for five minutes and medium was aspirated gently from each well of cell plate without disturbing cell pellet. Pellet was resuspended in: 200 μL DPBS and plates were spun again at 241×g for five minutes. The supernatant was aspirated and cold (4° C.) Extraction buffer (100 μL) was added per well. Plates were incubated at 4° C. on orbital shaker for two hours. Plates were spun at 3427×g×10 minutes. Supernatant (80 μL per well) was transferred to its respective well in 96 well V-bottom polypropylene plate. Neutralization Buffer 5× (20 μL per well) was added to V-bottom polypropylene plate containing supernatant. V-bottom polypropylene plates containing crude histone preparation (CHP) were incubated on orbital shaker×five minutes. Crude Histone Preparations were added (2 μL per well) to each respective well into duplicate 96 well ELISA plates containing 100 μL Coating Buffer (1×PBS+BSA 0.05% w/v). Plates were sealed and incubated overnight at 4° C. The following day, plates were washed three times with 300 μL per well 1×PBST. […] For H3K27me3 detection, 100 μL of HRP conjugated anti-rabbit IgG antibody diluted to 1:4000 in ELISA diluent was added per well. Plates were incubated at room temperature for 90 minutes. […] TMB substrate 100 μL was added per well. Histone H3 plates were incubated for five minutes at room temperature. H3K27me3 plates were incubated for 10 minutes at room temperature. The reaction was stopped with sulfuric acid 1N (100 μL per well). Absorbance for each plate was read at 450 nm.
Each plate included eight control wells DMSO only treatment (Minimum Inhibition) as well as eight control wells for maximum inhibition (Background wells).
The average of the ratio values for each control type was calculated and used to determine the percent inhibition for each test well in the plate. Test compound was serially diluted three-fold in DMSO for a total of ten test concentrations, beginning at 25 μM.

[2] = molecular target: wild-type EZH2 (PRC2 enzyme) (Homo sapiens (Human), UniProt Q15910); assay: PRC2 enzyme assay on peptide substrate, wild-type EZH2 (H3K27me0 peptide, 3H-SAM Flashplate); assay type: biochemical; details: wild-type PRC2 4 nM, read-out: WT EZH2 IC50
Experimental: (§1) Human PRC2 enzymes were purified as 4-component enzyme complexes co-expressed in Spodoptera frugiperda (sf9) cells using a baculovirus expression system. […] The EED subunit contained an N-terminal FLAG tag that was used to purify the entire 4-component complex from sf9 cell lysates.
(§2) The assays were all performed in a buffer consisting of 20 mM bicine (pH=7.6), 0.5 mM DTT, 0.005% BSG and 0.002% Tween20, prepared on the day of use. […] DMSO (1 μL) was added to columns 11, 12, 23, 24, rows A-H for the maximum signal control, and SAH, a known product and inhibitor of PRC2 (1 μL) was added to columns 11, 12, 23, 24, rows I-P for the minimum signal control. A cocktail (40 μL) containing the wild-type PRC2 enzyme and H3K27me0 peptide or any of the Y641 mutant enzymes and H3K27me2 peptide was added by Multidrop Combi (Thermo). The compounds were allowed to incubate with PRC2 for 30 min at 25° C., then a cocktail (10 μL) containing a mixture of non-radioactive and ^3H-SAM was added to initiate the reaction (final volume=51 μL). […] The assays were stopped by the addition of non-radioactive SAM (10 μL) to a final concentration of 600 μM, which dilutes the ^3H-SAM to a level where its incorporation into the peptide substrate is no longer detectable. 50 of the reaction in the 384-well polypropylene plate was then transferred to a 384-well Flashplate and the biotinylated peptides were allowed to bind to the streptavidin surface for at least 1 h before being washed three times with 0.1% Tween20 in a Biotek ELx405 plate washer. The plates were then read in a PerkinElmer TopCount platereader to measure the quantity of ^3H-labeled peptide bound to the Flashplate surface, measured as disintegrations per minute (dpm) or alternatively, referred to as counts per minute (cpm).

[3] = molecular target: EZH2 Y641F mutant (PRC2 enzyme) (Homo sapiens (Human), UniProt Q15910, Y641F); assay: PRC2 enzyme assay on peptide substrate, EZH2 Y641F mutant (H3K27me2 peptide, 3H-SAM Flashplate); assay type: biochemical; details: Y641F mutant PRC2 4 nM
EZH2 Y641F mutant (PRC2 enzyme), sequence (Q15910 whole entry Y641F): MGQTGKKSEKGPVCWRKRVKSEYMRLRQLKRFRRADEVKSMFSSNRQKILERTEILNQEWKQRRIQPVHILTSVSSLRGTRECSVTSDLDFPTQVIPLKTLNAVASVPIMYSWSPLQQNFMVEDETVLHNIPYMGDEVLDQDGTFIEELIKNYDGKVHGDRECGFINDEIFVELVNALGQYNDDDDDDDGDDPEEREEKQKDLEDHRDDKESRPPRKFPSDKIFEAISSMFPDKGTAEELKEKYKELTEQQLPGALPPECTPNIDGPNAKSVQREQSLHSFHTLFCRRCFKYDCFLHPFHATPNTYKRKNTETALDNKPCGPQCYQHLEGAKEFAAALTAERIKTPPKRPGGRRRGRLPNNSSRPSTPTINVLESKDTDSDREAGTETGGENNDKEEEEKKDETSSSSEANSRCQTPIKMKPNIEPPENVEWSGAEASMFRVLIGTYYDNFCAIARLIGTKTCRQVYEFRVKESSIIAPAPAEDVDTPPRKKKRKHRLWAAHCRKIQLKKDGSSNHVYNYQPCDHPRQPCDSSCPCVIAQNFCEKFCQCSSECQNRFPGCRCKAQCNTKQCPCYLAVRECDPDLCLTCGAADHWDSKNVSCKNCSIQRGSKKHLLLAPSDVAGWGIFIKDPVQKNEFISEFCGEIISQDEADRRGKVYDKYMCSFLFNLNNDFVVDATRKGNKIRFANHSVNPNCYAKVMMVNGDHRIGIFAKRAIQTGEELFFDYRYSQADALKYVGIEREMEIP
EZH2 Y641F mutant (PRC2 enzyme), sequence (O75530 whole entry partner): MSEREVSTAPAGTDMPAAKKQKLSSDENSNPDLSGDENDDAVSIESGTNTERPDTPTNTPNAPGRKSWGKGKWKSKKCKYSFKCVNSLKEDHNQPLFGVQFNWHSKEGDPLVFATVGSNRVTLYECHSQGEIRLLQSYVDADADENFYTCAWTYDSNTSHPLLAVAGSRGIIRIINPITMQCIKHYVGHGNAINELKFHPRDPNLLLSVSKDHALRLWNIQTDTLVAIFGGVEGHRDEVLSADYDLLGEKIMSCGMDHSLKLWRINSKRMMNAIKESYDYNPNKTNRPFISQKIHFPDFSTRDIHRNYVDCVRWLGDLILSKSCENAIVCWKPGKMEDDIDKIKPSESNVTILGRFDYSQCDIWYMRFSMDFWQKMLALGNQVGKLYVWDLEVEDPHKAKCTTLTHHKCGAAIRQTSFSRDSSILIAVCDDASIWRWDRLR
EZH2 Y641F mutant (PRC2 enzyme), sequence (Q15022 whole entry partner): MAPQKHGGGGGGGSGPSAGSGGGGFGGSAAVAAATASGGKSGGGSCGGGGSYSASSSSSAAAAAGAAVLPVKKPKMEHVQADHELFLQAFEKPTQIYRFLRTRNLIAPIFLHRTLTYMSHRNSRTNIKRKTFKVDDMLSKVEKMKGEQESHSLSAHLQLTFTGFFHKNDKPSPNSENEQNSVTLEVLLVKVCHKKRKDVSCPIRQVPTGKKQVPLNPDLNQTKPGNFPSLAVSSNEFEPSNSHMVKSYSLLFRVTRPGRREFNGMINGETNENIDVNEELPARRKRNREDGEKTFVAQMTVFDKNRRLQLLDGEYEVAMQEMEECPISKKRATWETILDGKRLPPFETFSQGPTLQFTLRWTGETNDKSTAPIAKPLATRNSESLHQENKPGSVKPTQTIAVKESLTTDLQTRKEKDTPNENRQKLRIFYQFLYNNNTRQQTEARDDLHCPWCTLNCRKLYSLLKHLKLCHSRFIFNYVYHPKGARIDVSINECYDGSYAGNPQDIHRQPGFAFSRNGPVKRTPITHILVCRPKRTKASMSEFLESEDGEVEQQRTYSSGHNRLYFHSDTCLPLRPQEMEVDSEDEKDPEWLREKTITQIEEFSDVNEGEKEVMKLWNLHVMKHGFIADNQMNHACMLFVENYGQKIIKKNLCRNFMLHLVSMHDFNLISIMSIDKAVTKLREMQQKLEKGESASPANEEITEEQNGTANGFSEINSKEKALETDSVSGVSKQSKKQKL
EZH2 Y641F mutant (PRC2 enzyme), sequence (Q09028 whole entry partner): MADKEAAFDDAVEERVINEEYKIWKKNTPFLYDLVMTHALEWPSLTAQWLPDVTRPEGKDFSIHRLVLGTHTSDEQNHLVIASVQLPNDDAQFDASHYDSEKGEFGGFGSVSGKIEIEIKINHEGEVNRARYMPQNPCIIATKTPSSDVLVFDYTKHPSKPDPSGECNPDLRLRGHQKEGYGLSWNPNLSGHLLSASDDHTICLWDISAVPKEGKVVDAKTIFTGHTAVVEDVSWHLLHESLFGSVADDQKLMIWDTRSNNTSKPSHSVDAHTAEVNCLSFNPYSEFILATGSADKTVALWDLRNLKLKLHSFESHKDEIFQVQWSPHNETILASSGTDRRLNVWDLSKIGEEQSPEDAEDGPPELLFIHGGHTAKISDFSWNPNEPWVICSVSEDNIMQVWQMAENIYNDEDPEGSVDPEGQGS
Experimental: as §1, §2

wild-type EZH2 (PRC2 enzyme), sequence (Q15910 whole entry): as the sequence (Q15910 whole entry Y641F) above, with F641Y counted along it
wild-type EZH2 (PRC2 enzyme), sequence (O75530 whole entry partner): as the sequence (O75530 whole entry partner) above
wild-type EZH2 (PRC2 enzyme), sequence (Q15022 whole entry partner): as the sequence (Q15022 whole entry partner) above
wild-type EZH2 (PRC2 enzyme), sequence (Q09028 whole entry partner): as the sequence (Q09028 whole entry partner) above

Row | SMILES | IC50 [1] [µM] | IC50 [2] [µM] | IC50 [3] [µM]
1 | CCN(c1cc(-c2ccc(CN3CCOCC3)cc2)cc(C(=O)NCc2c(C)[nH]n(C)c2=O)c1C)C1CCOCC1 [Compound 46, N-((2,5-dimethyl-3-oxo-2,3-dihydro-1H-pyrazol-4-yl)methyl)-5-(ethyl(tetrahydro-2H-pyran-4-yl)amino)-4-methyl-4′-(morpholinomethyl)-[1,1′-biphenyl]-3-carboxamide] | > 50 | – | –
2 | CCN(c1cc(Cl)cc(C(=O)NCc2c(N3CCCCC3)n(C)[nH]c2=O)c1C)[C@H]1CC[C@H](N(C)C)CC1 [Compound 93, 5-chloro-3-(ethyl[(trans)-4-(dimethylamino)cyclohexyl]amino)-2-methyl-N-([1-methyl-3-oxo-5-(piperidin-1-yl)-2,3-dihydro-1H-pyrazol-4-yl]methyl)benzamide] | 3.55 | 0.00971 | 0.0144
3 | CCn1nc(OC)c(CNC(=O)c2cc(Cl)cc(N(CC)[C@H]3CC[C@H](N(C)Cc4cccc(OC)c4)CC3)c2C)c1C [Compound 62, 5-chloro-3-(ethyl((trans)-4-((3-methoxybenzyl)-(methyl)-amino)-cyclohexyl)-amino)-N-((1-ethyl-3-methoxy-5-methyl-1H-pyrazol-4-yl)methyl)-2-methylbenzamide] | > 50 | 0.745 | 0.193
4 | CCN(c1cc(Cl)cc(C(=O)NCc2c(=O)[nH]n3c(C)cc(C)nc23)c1C)[C@H]1CC[C@H](N(C)C)CC1 [Compound 49, 5-chloro-N-((5,7-dimethyl-2-oxo-1,2-dihydropyrazolo[1,5-a]pyrimidin-3-yl)methyl)-3-(((trans)-4-(dimethylamino)cyclohexyl)(ethyl)amino)-2-methylbenzamide] | – | 10.4 | 5.17
5 | CCN(c1cc(Cl)cc(C(=O)NCc2c(OC)nn(C)c2C)c1C)C1CCN(CCOC)CC1 [Compound 76, 5-chloro-3-(ethyl(1-(2-methoxyethyl)piperidin-4-yl)amino)-N-((3-methoxy-1,5-dimethyl-1H-pyrazol-4-yl)methyl)-2-methylbenzamide] | – | > 50 | > 50
6 | CCN(c1cc(Cl)cc(C(=O)NCc2c(OC)nn(C)c2C)c1C)[C@H]1CC[C@H](N(C)C(C)c2cccnc2)CC1 (stereo partly drawn) [Compound 72, 5-chloro-3-(ethyl((trans)-4-(methyl(1-(pyridin-3-yl)ethyl)amino)cyclohexyl)amino)-N-((3-methoxy-1,5-dimethyl-1H-pyrazol-4-yl)methyl)-2-methylbenzamide] | – | > 50 | 5.67
7 | CCN(c1cc(Cl)cc(C(=O)NCc2c(C)n(C)[nH]c2=O)c1C)[C@H]1CC[C@H](N(C)Cc2cccc(OCCOC)c2)CC1 [Compound 69, 5-chloro-N-((1,5-dimethyl-3-oxo-2,3-dihydro-1H-pyrazol-4-yl)methyl)-3-(ethyl((trans)-4-((3-(2-methoxyethoxy)benzyl)(methyl)amino)cyclohexyl)amino)-2-methylbenzamide] | – | 0.136 | 0.031
8 | CCN(c1cc(Cl)cc(C(=O)NCc2c(C(C)C)[nH]n(C)c2=O)c1C)[C@H]1CC[C@H](N(C)C)CC1 [Compound 39, 5-chloro-3-(((trans)-4-(dimethylamino)cyclohexyl)(ethyl)amino)-N-((5-isopropyl-2-methyl-3-oxo-2,3-dihydro-1H-pyrazol-4-yl)methyl)-2-methylbenzamide] | – | 6.58 | 2.23
9 | CCN(c1cc(Cl)cc(C(=O)NCc2c(C(F)(F)F)n(C)n(C)c2=O)c1C)[C@H]1CC[C@H](N(C)C)CC1 [Compound 90, 5-chloro-N-((1,2-dimethyl-3-oxo-5-(trifluoromethyl)-2,3-dihydro-1H-pyrazol-4-yl)methyl)-3-(ethyl((trans)-4-(dimethylamino)cyclohexyl)amino)-2-methylbenzamide] | – | 1.91 | 0.502
10 | CCN(c1cc(Cl)cc(C(=O)NCc2c(OC)nn3c(C)cc(C)nc23)c1C)[C@H]1CC[C@H](N(C)C)CC1 [Compound 48, 5-chloro-3-(((trans)-4-(dimethylamino)cyclohexyl)(ethyl)amino)-N-((2-methoxy-5,7-dimethylpyrazolo[1,5-a]pyrimidin-3-yl)methyl)-2-methylbenzamide] | – | > 50 | > 50
11 | CCO[C@@H]1COC[C@H]1N(CC)c1cc(Cl)cc(C(=O)NCc2c(C)[nH]n(C)c2=O)c1C (relative stereo) [Compound 43, 5-chloro-N-((2,5-dimethyl-3-oxo-2,3-dihydro-1H-pyrazol-4-yl)methyl)-3-(((trans)-4-ethoxytetrahydrofuran-3-yl)(ethyl)amino)-2-methylbenzamide] | – | > 50 | > 50
12 | CCN(c1cc(Cl)cc(C(=O)NCc2c(OC)nn(C)c2C)c1C)[C@H]1CC[C@H](N(C)Cc2cccnc2)CC1 [Compound 66, 5-chloro-3-(ethyl((trans)-4-(methyl(pyridin-3-ylmethyl)amino)cyclohexyl)amino)-N-((3-methoxy-1,5-dimethyl-1H-pyrazol-4-yl)methyl)-2-methylbenzamide] | – | 10.2 | 2.34
13 | CCN(c1cc(Cl)cc(C(=O)NCc2c(OC)nn(C)c2OC)c1C)[C@H]1CC[C@H](N(C)C)CC1 [Compound 95, 5-chloro-N-((3,5-dimethoxy-1-methyl-1H-pyrazol-4-yl)methyl)-3-(((trans)-4-(dimethylamino)cyclohexyl)(ethyl)amino)-2-methylbenzamide] | – | > 50 | 17.7
14 | CCN(c1cc(Cl)cc(C(=O)NCc2c(OC)nn(CC)c2C)c1C)C1CCN(CCOC)CC1 [Compound 74] | – | 12.6 | 7.25
15 | CCN(c1cc(Cl)cc(C(=O)NCc2c(OC)nn(C)c2N2CCCCC2)c1C)[C@H]1CC[C@H](N(C)C)CC1 [Compound 92, 5-chloro-3-(ethyl[(trans)-4-(dimethylamino)cyclohexyl]amino)-N-([3-methoxy-1-methyl-5-(piperidin-1-yl)-1H-pyrazol-4-yl]methyl)-2-methylbenzamide] | – | > 50 | > 50
16 | CCN(c1cc(-c2ccc(N3CCNCC3)nc2)cc(C(=O)NCc2c(C)[nH]n(C)c2=O)c1C)C1CCOCC1 [Compound 47, N-((2,5-dimethyl-3-oxo-2,3-dihydro-1H-pyrazol-4-yl)methyl)-3-(ethyl(tetrahydro-2H-pyran-4-yl)amino)-2-methyl-5-(6-(piperazin-1-yl)pyridin-3-yl)benzamide] | > 50 | – | –
17 | CCN(c1cc(Cl)cc(C(=O)NCc2c(C)n(C)[nH]c2=O)c1C)[C@H]1CC[C@H](N(C)Cc2cccnc2)CC1 [Compound 67, 5-chloro-N-((1,5-dimethyl-3-oxo-2,3-dihydro-1H-pyrazol-4-yl)methyl)-3-(ethyl((trans)-4-(methyl(pyridin-3-ylmethyl)amino)cyclohexyl)amino)-2-methylbenzamide] | – | 0.319 | 0.06
18 | CCN(c1cc(Cl)cc(C(=O)NCc2cn(C)[nH]c2=O)c1C)[C@H]1CC[C@H](N(C)C)CC1 [Compound 31a, 5-chloro-3-(ethyl((trans)-4-(dimethylamino)cyclohexyl]amino)-2-methyl-N-((1-methyl-3-oxo-2,3-dihydro-1H-pyrazol-4-yl)methyl]benzamide formate] | – | 0.505 | 0.23
19 | CCN(c1cc(Cl)cc(C(=O)NCc2c(OC)nn(C)c2N2CCCCC2)c1C)[C@H]1CC[C@H](N(C)Cc2cccc(OC)c2)CC1 [Compound 83, 5-chloro-3-(ethyl((trans)-4-((3-methoxybenzyl)(methyl)amino)cyclohexyl)amino)-N-((3-methoxy-1-methyl-5-(piperidin-1-yl)-1H-pyrazol-4-yl)methyl)-2-methylbenzamide] | – | 45.8 | 18.3
20 | CCN(c1cc(Cl)cc(C(=O)NCc2c(OC)nn(C)c2N2CCOCC2)c1C)[C@H]1CC[C@H](N(C)C)CC1 [Compound 82, 5-chloro-3-(((trans)-4-(dimethylamino)cyclohexyl) (ethyl)amino)-N-((3-methoxy-1-methyl-5-morpholino-1H-pyrazol-4-yl)methyl)-2-methylbenzamide] | – | 22.9 | 27
21 | CCN(c1cc(Cl)cc(C(=O)NCc2c(OC)nn(C)c2N2CCCC2)c1C)[C@H]1CC[C@H](N(C)C)CC1 [Compound 80, 5-chloro-3-(((trans)-4-(dimethylamino)cyclohexyl) (ethyl)amino)-N-((3-methoxy-1-methyl-5-(pyrrolidin-1-yl)-1H-pyrazol-4-yl)methyl)-2-methylbenzamide] | – | > 50 | 49.4
22 | CCn1[nH]c(=O)c(CNC(=O)c2cc(Cl)cc(N(CC)[C@H]3CC[C@H](N(C)CCOC)CC3)c2C)c1C [Compound 65, 5-chloro-3-(ethyl((trans)-4-((2-methoxyethyl)-(methyl)-amino)-cyclohexyl)-amino)-N-((1-ethyl-5-methyl-3-oxo-2,3-dihydro-1H-pyrazol-4-yl)methyl)-2-methylbenzamide] | – | 1.14 | 0.442
23 | CCn1[nH]c(=O)c(CNC(=O)c2cc(Cl)cc(N(CC)[C@H]3CC[C@H](N(C)Cc4ccc(OC)cc4)CC3)c2C)c1C [Compound 71, 5-chloro-3-(ethyl((trans)-4-((4-methoxybenzyl)-(methyl)-amino)-cyclohexyl)-amino)-N-((1-ethyl-5-methyl-3-oxo-2,3-dihydro-1H-pyrazol-4-yl)methyl)-2-methylbenzamide] | – | 1.92 | 0.504
24 | CCN(c1cc(Cl)cc(C(=O)NCc2c(C)n(C)n(C)c2=O)c1C)[C@H]1CC[C@H](N(C)C)CC1 [Compound 87, 5-chloro-3-(ethyl((trans)-4-(dimethylamino)cyclohexyl)amino)-2-methyl-N-((1,2,5-trimethyl-3-oxo-2,3-dihydro-1H-pyrazol-4-yl)methyl)benzamide] | – | 0.335 | 0.253
